Where a SMILES comes first, the peptide text is derived from it.
Target: HLA A*3201 (Homo sapiens, UniProt P04439, A270S/D101S/D185E/E176V/E277Q/F133L/G103R/G107R/G231S/H175R/I121M/I218V/I322F/K168Q/L105A/L300P/L318F/M331R/P208A/P217A/Q94H/R106L/R138Q/S129P/T104I/T323A/T345S/V100E/V321M/V358M)
Test: biochemical
Type: binding

CC[C@H](C)[C@H](NC(=O)[C@H](CCCCN)NC(=O)[C@H](Cc1ccccc1)NC(=O)[C@H](CC(N)=O)NC(=O)[C@H](CC(N)=O)NC(=O)[C@H](Cc1ccccc1)NC(=O)[C@H](CC(C)C)NC(=O)[C@@H](NC(=O)[C@@H](N)CCCNC(=N)N)C(C)C)C(=O)O [3102.0429] (H-RVLFNNFKI-OH) gave an IC50 of 0.89 nM.

For CC[C@H](C)[C@H](NC(=O)[C@@H](NC(=O)[C@H](CC(N)=O)NC(=O)[C@H](Cc1ccccc1)NC(=O)[C@H](Cc1ccccc1)NC(=O)[C@@H](NC(=O)[C@@H](NC(=O)[C@@H](NC(=O)[C@@H](N)CCCCN)C(C)C)C(C)C)[C@@H](C)CC)[C@@H](C)O)C(=O)O [3102.0430] (H-KVVIFFNTI-OH), the IC50 was 8.3 nM.

CC[C@H](C)[C@H](NC(=O)[C@@H](NC(=O)[C@@H](NC(=O)[C@H](CC(N)=O)NC(=O)[C@H](Cc1ccccc1)NC(=O)[C@H](Cc1ccccc1)NC(=O)[C@@H](NC(=O)[C@@H](NC(=O)[C@@H](N)C(C)C)C(C)C)[C@@H](C)CC)[C@@H](C)O)[C@@H](C)CC)C(=O)O [3102.0431] (H-VVIFFNTII-OH) gave an IC50 of 15 nM.

In the case of CC[C@H](C)[C@H](NC(=O)[C@H](CC(N)=O)NC(=O)[C@H](CC(N)=O)NC(=O)[C@H](CC(C)C)NC(=O)[C@@H](NC(=O)[C@H](CC(N)=O)NC(=O)[C@H](Cc1ccc(O)cc1)NC(=O)[C@H](CC(C)C)NC(=O)[C@@H](N)Cc1c[nH]cn1)[C@@H](C)CC)C(=O)O [3102.0432] (H-HLYNILNNI-OH), the IC50 is reported as 73 nM.

CC[C@H](C)[C@H](NC(=O)[C@H](CO)NC(=O)[C@@H](NC(=O)[C@H](CCCCN)NC(=O)CNC(=O)[C@H](Cc1ccccc1)NC(=O)[C@H](Cc1ccccc1)NC(=O)[C@@H](NC(=O)[C@@H](N)CCCNC(=N)N)[C@@H](C)CC)[C@@H](C)O)C(=O)O [3102.0433] (H-RIFFGKTSI-OH) gave an IC50 of 1.3 nM.

CC[C@H](C)[C@H](NC(=O)[C@@H](NC(=O)[C@@H](NC(=O)[C@H](CCCCN)NC(=O)[C@H](CC(N)=O)NC(=O)[C@H](CC(N)=O)NC(=O)[C@H](C)NC(=O)[C@H](CC(C)C)NC(=O)[C@@H](N)CCCNC(=N)N)C(C)C)[C@@H](C)O)C(=O)O [3102.0434] (H-RLANNKVTI-OH) showed an IC50 of 1.5 nM.

With CC[C@H](C)[C@H](N)C(=O)N[C@H](C(=O)N[C@H](C(=O)N[C@@H](Cc1ccccc1)C(=O)N[C@@H](Cc1ccccc1)C(=O)N[C@H](C(=O)N[C@H](C(=O)N[C@@H](CC(C)C)C(=O)N[C@H](C(=O)O)[C@@H](C)CC)C(C)C)[C@@H](C)CC)[C@@H](C)CC)[C@@H](C)CC [3102.0435] (H-IIIFFIVLI-OH) the IC50 was 14 nM.

CC[C@H](C)[C@H](N)C(=O)N[C@H](C(=O)N[C@@H](Cc1ccccc1)C(=O)N[C@@H](Cc1ccccc1)C(=O)N[C@H](C(=O)N[C@H](C(=O)N[C@@H](CC(C)C)C(=O)N[C@H](C(=O)N[C@@H](CC(C)C)C(=O)O)[C@@H](C)CC)C(C)C)[C@@H](C)CC)[C@@H](C)CC [3102.0436] (H-IIFFIVLIL-OH) showed an IC50 of 12 nM.

Work on CC[C@H](C)[C@H](NC(=O)CNC(=O)[C@@H](NC(=O)[C@H](C)NC(=O)[C@@H](NC(=O)[C@H](CCCNC(=N)N)NC(=O)[C@H](CCSC)NC(=O)[C@H](CC(C)C)NC(=O)[C@@H](N)CCSC)C(C)C)C(C)C)C(=O)O [3102.0437] (H-MLMRVAVGI-OH) yielded an IC50 of 0.69 nM.

With CC(C)C[C@H](NC(=O)[C@H](CO)NC(=O)[C@H](CC(N)=O)NC(=O)[C@H](CCCNC(=N)N)NC(=O)[C@H](CC(C)C)NC(=O)CNC(=O)[C@H](Cc1ccc(O)cc1)NC(=O)[C@@H](NC(=O)[C@@H](N)CCCNC(=N)N)[C@@H](C)O)C(=O)O [3102.0438] (H-RTYGLRNSL-OH) the IC50 was 0.63 nM.

With CC[C@H](C)[C@H](NC(=O)CNC(=O)[C@H](CC(N)=O)NC(=O)[C@H](CO)NC(=O)[C@@H](NC(=O)CNC(=O)[C@H](CC(N)=O)NC(=O)[C@@H](NC(=O)CN)[C@@H](C)O)[C@@H](C)CC)C(=O)O [3102.0439] (H-GTNGISNGI-OH) the IC50 was 20 nM.

CC[C@H](C)[C@H](NC(=O)[C@H](CCC(=O)O)NC(=O)[C@H](CS)NC(=O)[C@@H](NC(=O)[C@@H](N)CO)[C@@H](C)CC)C(=O)N[C@H](C(=O)N[C@@H](Cc1ccc(O)cc1)C(=O)N[C@@H](CO)C(=O)N[C@@H](Cc1ccccc1)C(=O)O)C(C)C [3102.0440] (H-SICEIVYSF-OH) was tested, and the IC50 was 0.35 nM.

For CC[C@H](C)[C@H](N)C(=O)N[C@H](C(=O)N[C@@H](Cc1c[nH]c2ccccc12)C(=O)N[C@@H](CCCCN)C(=O)NCC(=O)N[C@H](C(=O)N[C@@H](Cc1ccc(O)cc1)C(=O)N[C@H](C(=O)N[C@@H](Cc1ccc(O)cc1)C(=O)O)[C@@H](C)O)[C@@H](C)CC)[C@@H](C)CC [3102.0441] (H-IIWKGIYTY-OH), the IC50 was 3.3 nM.

CC(C)C[C@H](NC(=O)[C@H](CO)NC(=O)[C@@H](N)CCCCN)C(=O)N[C@@H](CCCCN)C(=O)N[C@@H](CCCCN)C(=O)N[C@H](C(=O)N[C@@H](Cc1ccc(O)cc1)C(=O)N[C@H](C(=O)N[C@@H](Cc1ccccc1)C(=O)O)[C@@H](C)O)C(C)C [3102.0442] (H-KSLKKVYTF-OH) gave an IC50 of 0.49 nM.

CC[C@H](C)[C@H](NC(=O)[C@H](CO)NC(=O)[C@H](CCCCN)NC(=O)[C@H](Cc1ccccc1)NC(=O)[C@H](CC(C)C)NC(=O)[C@@H](NC(=O)[C@@H](N)CCSC)[C@@H](C)O)C(=O)N[C@@H](CC(C)C)C(=O)N[C@@H](Cc1ccccc1)C(=O)O [3102.0443] (H-MTLFKSILF-OH) gave an IC50 of 11 nM.

In the case of CC[C@H](C)[C@H](NC(=O)[C@H](CO)NC(=O)[C@H](C)NC(=O)[C@H](Cc1ccc(O)cc1)NC(=O)[C@@H](NC(=O)[C@H](CCC(=O)O)NC(=O)[C@H](CC(N)=O)NC(=O)[C@@H](NC(=O)[C@@H](N)CC(C)C)[C@@H](C)O)[C@@H](C)CC)C(=O)O [3102.0445] (H-LTNEIYASI-OH), the IC50 is reported as 13 nM.

In the case of CC[C@H](C)[C@H](NC(=O)[C@H](CC(N)=O)NC(=O)[C@H](CCSC)NC(=O)[C@H](CCSC)NC(=O)[C@@H](N)Cc1ccc(O)cc1)C(=O)N[C@@H](Cc1ccc(O)cc1)C(=O)N[C@@H](CC(C)C)C(=O)N[C@@H](CC(N)=O)C(=O)N[C@@H](Cc1ccccc1)C(=O)O [3102.0446] (H-YMMNIYLNF-OH), the IC50 is reported as 2.9 nM.

In the case of CC[C@H](C)[C@H](NC(=O)[C@H](CCSC)NC(=O)[C@H](CC(=O)O)NC(=O)[C@H](CCSC)NC(=O)[C@@H](N)CC(C)C)C(=O)N[C@H](C(=O)N[C@@H](CC(C)C)C(=O)N[C@@H](CO)C(=O)N[C@@H](CC(C)C)C(=O)O)[C@@H](C)O [3102.0448] (H-LMDMITLSL-OH), the IC50 is reported as 30 nM.

For CC[C@H](C)[C@H](NC(=O)[C@H](CO)NC(=O)[C@@H](NC(=O)[C@@H](NC(=O)[C@H](Cc1ccc(O)cc1)NC(=O)[C@H](CC(N)=O)NC(=O)[C@H](CO)NC(=O)[C@H](CC(C)C)NC(=O)[C@@H](N)Cc1c[nH]cn1)[C@@H](C)CC)C(C)C)C(=O)O [3102.0449] (H-HLSNYIVSI-OH), the IC50 was 0.99 nM.

Molecule CC[C@H](C)[C@H](NC(=O)[C@@H](NC(=O)[C@H](CC(N)=O)NC(=O)[C@H](CO)NC(=O)[C@H](CC(N)=O)NC(=O)[C@H](C)NC(=O)[C@@H](NC(=O)[C@@H](NC(=O)[C@@H](N)CO)[C@@H](C)O)[C@@H](C)CC)[C@@H](C)CC)C(=O)O [3102.0451] (H-STIANSNII-OH) has an IC50 of 14 nM.

Work on CC[C@H](C)[C@H](NC(=O)[C@H](CO)NC(=O)[C@H](CC(C)C)NC(=O)[C@H](CO)NC(=O)[C@H](CCCNC(=N)N)NC(=O)[C@H](Cc1c[nH]c2ccccc12)NC(=O)[C@@H](NC(=O)[C@@H](NC(=O)[C@H](C)N)[C@@H](C)O)[C@@H](C)CC)C(=O)O [3102.0452] (H-ATIWRSLSI-OH) yielded an IC50 of 1.9 nM.

With CC[C@H](C)[C@H](NC(=O)[C@H](CCC(N)=O)NC(=O)[C@H](CCC(=O)O)NC(=O)[C@H](CC(=O)O)NC(=O)[C@@H](NC(=O)[C@@H](N)CCSC)[C@@H](C)O)C(=O)N[C@@H](Cc1ccc(O)cc1)C(=O)N[C@@H](C)C(=O)N[C@@H](Cc1ccccc1)C(=O)O [3102.0453] (H-MTDEQIYAF-OH) the IC50 was 18 nM.

CC[C@H](C)[C@H](NC(=O)[C@@H](NC(=O)[C@H](CC(C)C)NC(=O)[C@H](CC(C)C)NC(=O)[C@H](CC(N)=O)NC(=O)[C@H](Cc1ccc(O)cc1)NC(=O)[C@H](CCSC)NC(=O)[C@H](CC(C)C)NC(=O)[C@@H](N)CC(C)C)[C@@H](C)O)C(=O)O [3102.0454] (H-LLMYNLLTI-OH) gave an IC50 of 72 nM.

CC[C@H](C)[C@H](NC(=O)[C@@H](NC(=O)[C@@H](NC(=O)[C@H](CC(C)C)NC(=O)[C@H](CC(C)C)NC(=O)[C@H](CC(N)=O)NC(=O)[C@H](Cc1ccc(O)cc1)NC(=O)[C@H](CCSC)NC(=O)[C@@H](N)CC(C)C)[C@@H](C)O)[C@@H](C)CC)C(=O)O [3102.0455] (H-LMYNLLTII-OH) was tested, and the IC50 was 30 nM.

In the case of CC[C@H](C)[C@H](NC(=O)[C@@H](N)CCCCN)C(=O)N[C@@H](CC(N)=O)C(=O)N[C@@H](CC(N)=O)C(=O)N[C@@H](Cc1ccccc1)C(=O)N[C@@H](C)C(=O)N[C@@H](CC(N)=O)C(=O)N[C@@H](CCC(=O)O)C(=O)N[C@@H](Cc1ccccc1)C(=O)O [3102.0456] (H-KINNFANEF-OH), the IC50 is reported as 2.1 nM.

In the case of CC[C@H](C)[C@H](NC(=O)[C@@H](NC(=O)[C@@H](N)CCCCN)[C@@H](C)O)C(=O)N[C@@H](Cc1ccccc1)C(=O)N[C@@H](CC(C)C)C(=O)N[C@@H](CO)C(=O)N[C@@H](CCC(=O)O)C(=O)N1CCC[C@H]1C(=O)N[C@@H](Cc1ccc(O)cc1)C(=O)O [3102.0457] (H-KTIFLSEPY-OH), the IC50 is reported as 2.9 nM.

CSCC[C@H](NC(=O)[C@@H](NC(=O)[C@@H](N)CCCCN)[C@@H](C)O)C(=O)N[C@@H](C)C(=O)N1CCC[C@H]1C(=O)N[C@H](C(=O)N[C@@H](Cc1c[nH]cn1)C(=O)N[C@H](C(=O)N[C@@H](Cc1ccc(O)cc1)C(=O)O)[C@@H](C)O)C(C)C [3102.0458] (H-KTMAPVHTY-OH) was tested, and the IC50 was 4.6 nM.

Work on CC[C@H](C)[C@H](NC(=O)[C@H](Cc1ccc(O)cc1)NC(=O)[C@H](CC(C)C)NC(=O)[C@H](CO)NC(=O)[C@@H](N)CCCCN)C(=O)N[C@H](C(=O)N[C@@H](CC(N)=O)C(=O)N[C@H](C(=O)N[C@@H](CC(C)C)C(=O)O)[C@@H](C)O)[C@@H](C)O [3102.0459] (H-KSLYITNTL-OH) yielded an IC50 of 0.52 nM.
